Measurements published in patent US20100099561A1, “HETEROBICYCLIC ALKYLTHIO-BRIDGED ISOXAZOLINES” (E.I. DU PONT DE NEMOURS AND COMPANY, priority 2008, published 2010).

Key:
Assay type in all cases: in vivo
kochia (Kochia scoparia) = test: Test B preemergence, kochia; conditions: scale 0 to 100
Excerpt: (§1) Seeds of plant species selected from blackgrass (Alopecurus myosuroides), downy bromegrass (Bromus tectorum), green foxtail (Setaria viridis), Italian ryegrass (Lolium multiflorum), wheat (Triticum aestivum), wild oat (Avena fatua), catchweed bedstraw (Galium aparine), bermudagrass (Cynodon dactylon), Surinam grass (Brachiaria decumbens), cocklebur (Xanthium strumarium), corn (Zea mays), large crabgrass (Digitaria sanguinalis), woolly cupgrass (Eriochloa villosa), giant foxtail (Setaria faberii), goosegrass (Eleusine indica), johnsongrass (Sorghum halepense), kochia (Kochia scoparia), lambsquarters (Chenopodium album), morningglory (Ipomoea coccinea), nightshade (eastern black nightshade, Solanum ptycanthum), yellow nutsedge (Cyperus esculentus), pigweed (Amaranthus retroflexus), ragweed (common ragweed, Ambrosia elatior), soybean (Glycine max), sunflower (common oilseed sunflower, Helianthus annuus), Russian thistle (Salsola kali), and velvetleaf (Abutilon theophrasti) were planted into a blend of loam soil and sand and treated preemergence with test compounds formulated in a non-phytotoxic solvent mixture which included a surfactant. Treated plants and controls were maintained in a greenhouse for 13 to 15 days, after which time all species were compared to controls and visually evaluated. Plant response ratings, summarized in Table B, are based on a scale of 0 to 100 where 0 is no effect and 100 is complete control. A dash (-) response means no test result.

[1] = test system: Russian thistle (Salsola kali); test: Test B preemergence, Russian thistle; conditions: scale 0 to 100
Excerpt: as §1

[2] = test system: large crabgrass (Digitaria sanguinalis); test: Test B preemergence, large crabgrass; conditions: scale 0 to 100
Excerpt: as §1

[3] = test system: morningglory (Ipomoea spp.); test: Test A postemergence, morningglory; conditions: 0 to 100 scale (0 no effect, 100 complete control)
Outline: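 Pre: directed soil spray after sowing in loam/sand. Post: seedlings at 1–2 leaf stage, 2–10 cm. Vehicle: non-phytotoxic solvent mix + surfactant. Greenhouse ~10 d; visual injury 0–100 vs untreated controls.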

[4] = test system: sunflower (common oilseed sunflower, Helianthus annuus); test: Test B preemergence, sunflower; conditions: Preemergence, scale 0 to 100
Excerpt: as §1

[5] = test system: johnsongrass (Sorghum halepense); test: Test B preemergence, johnsongrass; conditions: scale 0 to 100
Excerpt: as §1

[6] = test system: downy bromegrass (Bromus tectorum); test: Test B preemergence, downy bromegrass; conditions: scale 0 to 100
Excerpt: as §1

[7] = test system: pigweed (Amaranthus retroflexus); test: Test B preemergence, pigweed; conditions: scale 0 to 100
Excerpt: as §1

## CC1(C)CC(S(=O)(=O)Cc2c(C(F)(F)F)nc3n(c2=O)CCO3)=NO1 [Compound 2, 6-[[(4,5-dihydro-5,5-dimethyl-3-isoxazolyl)sulfonyl]methyl]-2,3-dihydro-7-(trifluoromethyl)-5H-oxazolo[3,2-α]pyrimidin-5-one]
Kochia (Kochia scoparia); 8 g ai/ha
  Plant response rating, Kochia: 0
Kochia (Kochia scoparia); 16 g ai/ha
  Plant response rating, Kochia: 0
Kochia (Kochia scoparia); 31 g ai/ha
  Plant response rating, Kochia: 75
Kochia (Kochia scoparia); 62 g ai/ha
  Plant response rating, Kochia: 70
[1]; 8 g ai/ha
  Plant response rating, Russian Thistle: 0
[1]; 16 g ai/ha
  Plant response rating, Russian Thistle: 0
[1]; 31 g ai/ha
  Plant response rating, Russian Thistle: 0
[1]; 62 g ai/ha
  Plant response rating, Russian Thistle: 0
[2]; 8 g ai/ha
  Plant response rating, Crabgrass, Large: 0
[2]; 16 g ai/ha
  Plant response rating, Crabgrass, Large: 65
[2]; 31 g ai/ha
  Plant response rating, Crabgrass, Large: 80
[2]; 62 g ai/ha
  Plant response rating, Crabgrass, Large: 90
[3]; 125 g ai/ha
  Plant response rating, Morningglory: 30
[3]; 500 g ai/ha
  Plant response rating, Morningglory: 70
[4]; 16 g ai/ha
  Plant response rating, Sunflower: 0
[4]; 31 g ai/ha
  Plant response rating, Sunflower: 0
[4]; 62 g ai/ha
  Plant response rating, Sunflower: 0
[5]; 8 g ai/ha
  Plant response rating, Johnsongrass: 0
[5]; 16 g ai/ha
  Plant response rating, Johnsongrass: 10
[5]; 31 g ai/ha
  Plant response rating, Johnsongrass: 30
[5]; 62 g ai/ha
  Plant response rating, Johnsongrass: 80
[6]; 8 g ai/ha
  Plant response rating, Bromegrass, Downy: 0
[6]; 16 g ai/ha
  Plant response rating, Bromegrass, Downy: 0
[6]; 31 g ai/ha
  Plant response rating, Bromegrass, Downy: 0
[6]; 62 g ai/ha
  Plant response rating, Bromegrass, Downy: 0
[7]; 8 g ai/ha
  Plant response rating, Pigweed: 0
[7]; 16 g ai/ha
  Plant response rating, Pigweed: 0
[7]; 31 g ai/ha
  Plant response rating, Pigweed: 0
[7]; 62 g ai/ha
  Plant response rating, Pigweed: 0

## CC1(C)CC(S(=O)(=O)Cc2c(C(F)(F)F)nc3n(c2=O)CCC3)=NO1 [Compound 11, 3-[[(4,5-dihydro-5,5-dimethyl-3-isoxazolyl)sulfonyl]methyl]-7,8-dihydro-2-(trifluoromethyl)pyrrolo[1,2-α]pyrimidin-4(6H)-one]
[2]; 16 g ai/ha
  Plant response rating, Crabgrass, Large: 65
[2]; 31 g ai/ha
  Plant response rating, Crabgrass, Large: 85
[2]; 62 g ai/ha
  Plant response rating, Crabgrass, Large: 100
[2]; 125 g ai/ha
  Plant response rating, Crabgrass, Large: 100
[3]; 125 g ai/ha
  Plant response rating, Morningglory: 10
[3]; 500 g ai/ha
  Plant response rating, Morningglory: 60
[4]; 16 g ai/ha
  Plant response rating, Sunflower: 0
[4]; 31 g ai/ha
  Plant response rating, Sunflower: 0
[4]; 62 g ai/ha
  Plant response rating, Sunflower: 0
[4]; 125 g ai/ha
  Plant response rating, Sunflower: 20
[5]; 16 g ai/ha
  Plant response rating, Johnsongrass: 0
[5]; 31 g ai/ha
  Plant response rating, Johnsongrass: 60
[5]; 62 g ai/ha
  Plant response rating, Johnsongrass: 65
[5]; 125 g ai/ha
  Plant response rating, Johnsongrass: 90
[6]; 16 g ai/ha
  Plant response rating, Bromegrass, Downy: 0
[6]; 31 g ai/ha
  Plant response rating, Bromegrass, Downy: 0
[6]; 62 g ai/ha
  Plant response rating, Bromegrass, Downy: 0
[6]; 125 g ai/ha
  Plant response rating, Bromegrass, Downy: 65
[7]; 16 g ai/ha
  Plant response rating, Pigweed: 0
[7]; 31 g ai/ha
  Plant response rating, Pigweed: 0
[7]; 62 g ai/ha
  Plant response rating, Pigweed: 100
[7]; 125 g ai/ha
  Plant response rating, Pigweed: 100

## CC1(C)CC(S(=O)(=O)Cc2c(C(F)(F)F)nc3ccsn3c2=O)=NO1 [Compound 16]
Kochia (Kochia scoparia); 16 g ai/ha
  Plant response rating, Kochia: 0
Kochia (Kochia scoparia); 31 g ai/ha
  Plant response rating, Kochia: 0
Kochia (Kochia scoparia); 62 g ai/ha
  Plant response rating, Kochia: 0
Kochia (Kochia scoparia); 125 g ai/ha
  Plant response rating, Kochia: 0
[2]; 16 g ai/ha
  Plant response rating, Crabgrass, Large: 70
[2]; 31 g ai/ha
  Plant response rating, Crabgrass, Large: 95
[2]; 62 g ai/ha
  Plant response rating, Crabgrass, Large: 100
[2]; 125 g ai/ha
  Plant response rating, Crabgrass, Large: 100
[3]; 125 g ai/ha
  Plant response rating, Morningglory: 0
[3]; 500 g ai/ha
  Plant response rating, Morningglory: 50
[4]; 16 g ai/ha
  Plant response rating, Sunflower: 0
[4]; 31 g ai/ha
  Plant response rating, Sunflower: 0
[4]; 62 g ai/ha
  Plant response rating, Sunflower: 0
[4]; 125 g ai/ha
  Plant response rating, Sunflower: 0
[5]; 16 g ai/ha
  Plant response rating, Johnsongrass: 0
[5]; 31 g ai/ha
  Plant response rating, Johnsongrass: 45
[5]; 62 g ai/ha
  Plant response rating, Johnsongrass: 85
[5]; 125 g ai/ha
  Plant response rating, Johnsongrass: 95
[6]; 16 g ai/ha
  Plant response rating, Bromegrass, Downy: 0
[6]; 31 g ai/ha
  Plant response rating, Bromegrass, Downy: 0
[6]; 62 g ai/ha
  Plant response rating, Bromegrass, Downy: 0
[6]; 125 g ai/ha
  Plant response rating, Bromegrass, Downy: 30
[7]; 31 g ai/ha
  Plant response rating, Pigweed: 0
[7]; 62 g ai/ha
  Plant response rating, Pigweed: 0
[7]; 125 g ai/ha
  Plant response rating, Pigweed: 100

## CC1(C)CC(S(=O)(=O)Cc2c(C(F)(F)Cl)nc3n(c2=O)CCC3)=NO1 [Compound 18]
Kochia (Kochia scoparia); 16 g ai/ha
  Plant response rating, Kochia: 0
Kochia (Kochia scoparia); 31 g ai/ha
  Plant response rating, Kochia: 0
Kochia (Kochia scoparia); 62 g ai/ha
  Plant response rating, Kochia: 55
Kochia (Kochia scoparia); 125 g ai/ha
  Plant response rating, Kochia: 100
[2]; 16 g ai/ha
  Plant response rating, Crabgrass, Large: 0
[2]; 31 g ai/ha
  Plant response rating, Crabgrass, Large: 70
[2]; 62 g ai/ha
  Plant response rating, Crabgrass, Large: 90
[2]; 125 g ai/ha
  Plant response rating, Crabgrass, Large: 100
[3]; 125 g ai/ha
  Plant response rating, Morningglory: 30
[3]; 500 g ai/ha
  Plant response rating, Morningglory: 60
[4]; 16 g ai/ha
  Plant response rating, Sunflower: 0
[4]; 31 g ai/ha
  Plant response rating, Sunflower: 0
[4]; 62 g ai/ha
  Plant response rating, Sunflower: 0
[4]; 125 g ai/ha
  Plant response rating, Sunflower: 0
[5]; 16 g ai/ha
  Plant response rating, Johnsongrass: 15
[5]; 31 g ai/ha
  Plant response rating, Johnsongrass: 20
[5]; 62 g ai/ha
  Plant response rating, Johnsongrass: 60
[5]; 125 g ai/ha
  Plant response rating, Johnsongrass: 85
[6]; 16 g ai/ha
  Plant response rating, Bromegrass, Downy: 0
[6]; 31 g ai/ha
  Plant response rating, Bromegrass, Downy: 0
[6]; 62 g ai/ha
  Plant response rating, Bromegrass, Downy: 0
[6]; 125 g ai/ha
  Plant response rating, Bromegrass, Downy: 20
[7]; 16 g ai/ha
  Plant response rating, Pigweed: 0
[7]; 31 g ai/ha
  Plant response rating, Pigweed: 100
[7]; 62 g ai/ha
  Plant response rating, Pigweed: 100
[7]; 125 g ai/ha
  Plant response rating, Pigweed: 100

## CC1(C)CC(S(=O)(=O)Cc2c(C(F)(F)C(F)(F)F)nc3n(c2=O)CCCC3)=NO1 [Compound 21]
Kochia (Kochia scoparia); 16 g ai/ha
  Plant response rating, Kochia: 0
Kochia (Kochia scoparia); 62 g ai/ha
  Plant response rating, Kochia: 60
Kochia (Kochia scoparia); 125 g ai/ha
  Plant response rating, Kochia: 80
[1]; 16 g ai/ha
  Plant response rating, Russian Thistle: 0
[1]; 31 g ai/ha
  Plant response rating, Russian Thistle: 60
[1]; 62 g ai/ha
  Plant response rating, Russian Thistle: 65
[1]; 125 g ai/ha
  Plant response rating, Russian Thistle: 85
[2]; 16 g ai/ha
  Plant response rating, Crabgrass, Large: 20
[2]; 31 g ai/ha
  Plant response rating, Crabgrass, Large: 95
[2]; 62 g ai/ha
  Plant response rating, Crabgrass, Large: 98
[2]; 125 g ai/ha
  Plant response rating, Crabgrass, Large: 100
[3]; 125 g ai/ha
  Plant response rating, Morningglory: 0
[3]; 500 g ai/ha
  Plant response rating, Morningglory: 40
[4]; 16 g ai/ha
  Plant response rating, Sunflower: 0
[4]; 31 g ai/ha
  Plant response rating, Sunflower: 0
[4]; 62 g ai/ha
  Plant response rating, Sunflower: 0
[4]; 125 g ai/ha
  Plant response rating, Sunflower: 10
[5]; 16 g ai/ha
  Plant response rating, Johnsongrass: 0
[5]; 31 g ai/ha
  Plant response rating, Johnsongrass: 30
[5]; 62 g ai/ha
  Plant response rating, Johnsongrass: 60
[5]; 125 g ai/ha
  Plant response rating, Johnsongrass: 98
[6]; 16 g ai/ha
  Plant response rating, Bromegrass, Downy: 0
[6]; 31 g ai/ha
  Plant response rating, Bromegrass, Downy: 0
[6]; 62 g ai/ha
  Plant response rating, Bromegrass, Downy: 0
[6]; 125 g ai/ha
  Plant response rating, Bromegrass, Downy: 60
[7]; 16 g ai/ha
  Plant response rating, Pigweed: 0
[7]; 31 g ai/ha
  Plant response rating, Pigweed: 0
[7]; 62 g ai/ha
  Plant response rating, Pigweed: 0
[7]; 125 g ai/ha
  Plant response rating, Pigweed: 98
